Where two headings read alike, the source gives them in different places.
Tested on: Gli1-mediated transcription
Experiment: Gli1-mediated transcriptional luciferase reporter assay
Format: cell-based
Settings: Shh-LIGHT2 cells, antagonist mode, purmorphamine 1.5 μM stimulation, 24 h
Protocol: Gli1-mediated transcriptional luciferase reporter assay was performed using Shh-LIGHT2 cells in order to evaluate the effects on activation and inhibition of Gli1-mediated transcription by the compounds of the disclosure. Brief assay procedure is provided below. […] Shh-LIGHT2 cells were harvested from about 80% confluent 10-cm dish using 0.25% Trypsin-EDTA solution. Medium was removed, and cells were washed with 5 mL DPBS and aspirated. Then, 1 mL 0.25% Trypsin-EDTA solution was added to a 10-cm dish. The dish was placed in the incubator for 1-3 minutes, or until cells have detached. 3 mL of cell growth medium (DMEM, 10% FBS, 1% PenStrep, 1% sodium pyruvate, and 1% GlutaMax) was added to the 10-cm dish, and the contents were transferred to a conical tube. […] The cell assay plate was removed from incubator after cells reached confluency. The culture medium was then manually removed from the cell plates, and the plates were centrifuged at 200 rpm for 30 seconds. […] After 30 min incubation of antagonist, cells were stimulated with agonist (purmorphamine, 5 μL, 1.5 μM final), then incubate for 24 h at 37° C./5% CO2. […] Luciferase assay: After incubation, the cell assay plate was allowed to acclimate to room temperature. Then, 20 μL of Duo-Glo® Luciferase Reagent (Promega) was added to each well of cell assay plate. The plate was briefly spun down, mixed, and incubated for 30 minutes at room temperature. The cell plate was read using luminometer for firefly luminescence activity. Then, 20 μL of Duo-Glo® Step&Glo® Reagent (Promega) was added to each well of cell assay plate. The plate was briefly spun down, mixed, and incubated for 30 minutes at room temperature. The cell plate was read using luminometer for Renilla luminescence activity. Ratio of firefly: Renilla luminescence was calculated for each well. The compound well ratio was normalized to the ratio from a control well.

[1] = firefly luminescence, read-out: Gli1 IC50 firefly
[2] = ratio of firefly:Renilla luminescence, read-out: Gli1 IC50 firefly:Renilla ratio

| Structure (SMILES) | IC50 [1] [nM] | IC50 [2] [nM] |
| --- | --- | --- |
| Clc1cccc2c1CC(N1CCc3nc(-c4ccccn4)[nH]c3C1)CC2 (centres unmarked) [Example 78, 5-(8-chloro-1,2,3,4-tetrahydronaphthalen-2-yl)-2-(pyridin-2-yl)-4,5,6,7-tetrahydro-3H-imidazo[4,5-c]pyridine] | 1000 to 50000 | 1000 to 50000 |
| O[C@H]1c2cc(Cl)ccc2C[C@@H]1N1CCc2nc(-c3ccccc3Cl)[nH]c2C1 (relative stereo) [Example 99, trans-6-chloro-2-(2-(2-chlorophenyl)-3,4,6,7-tetrahydro-5H-imidazo[4,5-c]pyridin-5-yl)-2,3-dihydro-1H-inden-1-ol] | 1000 to 50000 | 1000 to 50000 |
| Cn1c(-c2ccc(C3CC3)cc2Cl)nc2c1CN(C1CCc3ccc(Cl)cc3C1)CC2 (centres unmarked) [Example 163, 5-(7-chloro-1,2,3,4-tetrahydronaphthalen-2-yl)-2-(2-chloro-4-cyclopropylphenyl)-3-methyl-4,5,6,7-tetrahydro-3H-imidazo[4,5-c]pyridine] | < 100 | < 100 |
| Clc1ccccc1-c1nc2c([nH]1)CC(N1CCc3cccc(Cl)c3C1)CC2 (centres unmarked) [Example 185, 8-chloro-2-(2-(2-chlorophenyl)-4,5,6,7-tetrahydro-1H-benzo[d]imidazol-6-yl)-1,2,3,4-tetrahydroisoquinoline] | < 100 | < 100 |
| Fc1ccccc1-c1nc2c([nH]1)CN(C1CCc3ncccc3C1)CC2 (centres unmarked) [Example 55, 6-(2-(2-fluorophenyl)-3,4,6,7-tetrahydro-5H-imidazo[4,5-c]pyridin-5-yl)-5,6,7,8-tetrahydroquinoline] | 1000 to 50000 | 1000 to 50000 |
| COc1ccc(-c2nc3c([nH]2)CN(C2CCc4ccc(Cl)cc4C2)CC3)c(Cl)c1 (centres unmarked) [Example 23, 5-(7-chloro-1,2,3,4-tetrahydronaphthalen-2-yl)-2-(2-chloro-4-methoxyphenyl)-4,5,6,7-tetrahydro-3H-imidazo[4,5-c]pyridine] | < 100 | < 100 |
| Clc1cc(Cl)c2c(c1)CCC(N1CCc3nc(-c4ccccc4Cl)[nH]c3C1)C2 (centres unmarked) [Example 25, 2-(2-chlorophenyl)-5-(6,8-dichloro-1,2,3,4-tetrahydronaphthalen-2-yl)-4,5,6,7-tetrahydro-3H-imidazo[4,5-c]pyridine] | 1000 to 50000 | 1000 to 50000 |
| Clc1ccccc1-c1nc2c([nH]1)CN(C1CCc3cccc(Cl)c3C1)CC2 (centres unmarked) [Example 1, 5-(8-chloro-1,2,3,4-tetrahydronaphthalen-2-yl)-2-(2-chlorophenyl)-4,5,6,7-tetrahydro-3H-imidazo[4,5-c]pyridine] | < 100 | 100 to 490 |
| Clc1ccccc1-c1nc2c([nH]1)CC(N1Cc3cccc(Cl)c3C1)CC2 (centres unmarked) [Example 186, 6-(4-chloroisoindolin-2-yl)-2-(2-chlorophenyl)-4,5,6,7-tetrahydro-1H-benzo[d]imidazole] | < 100 | < 100 |
| Clc1ccccc1-c1nc2c([nH]1)CN(C1CCc3cccc(C4CC4)c3C1)CC2 (centres unmarked) [Example 36, 2-(2-chlorophenyl)-5-(8-cyclopropyl-1,2,3,4-tetrahydronaphthalen-2-yl)-4,5,6,7-tetrahydro-3H-imidazo[4,5-c]pyridine] | 1000 to 50000 | 500 to 990 |
| Clc1ccc2c(c1)CC(N1CCc3nc(-c4ccccc4Br)[nH]c3C1)CC2 (centres unmarked) [Example 28, 2-(2-bromophenyl)-5-(7-chloro-1,2,3,4-tetrahydronaphthalen-2-yl)-4,5,6,7-tetrahydro-3H-imidazo[4,5-c]pyridine] | 100 to 490 | 100 to 490 |
| Fc1ccc2c(c1)CC(N1CCc3nc(-c4ccccc4F)[nH]c3C1)CC2 (centres unmarked) [Example 5, 5-(7-fluoro-1,2,3,4-tetrahydronaphthalen-2-yl)-2-(2-fluorophenyl)-4,5,6,7-tetrahydro-3H-imidazo[4,5-c]pyridine] | 1000 to 50000 | 1000 to 50000 |
| Clc1ccccc1-c1nc2c([nH]1)CN(C1CCc3ccc(Br)cc3C1)CC2 (centres unmarked) [Example 27, 5-(7-bromo-1,2,3,4-tetrahydronaphthalen-2-yl)-2-(2-chlorophenyl)-4,5,6,7-tetrahydro-3H-imidazo[4,5-c]pyridine] | 100 to 490 | < 100 |
| Clc1ccc2c(c1)CC(N1CCc3nc(-c4ccc(C5CC5)cc4Cl)[nH]c3C1)CC2 (centres unmarked) [Example 37, 5-(7-chloro-1,2,3,4-tetrahydronaphthalen-2-yl)-2-(2-chloro-4-cyclopropylphenyl)-4,5,6,7-tetrahydro-3H-imidazo[4,5-c]pyridine] | < 100 | < 100 |
| Clc1ccccc1-c1nc2c([nH]1)C[C@@H](N1CCc3cccc(Cl)c3C1)CC2 [Example 185-S, (S)-8-chloro-2-(2-(2-chlorophenyl)-4,5,6,7-tetrahydro-1H-benzo[d]imidazol-6-yl)-1,2,3,4-tetrahydroisoquinoline] | 100 to 490 | < 100 |
| Clc1ccccc1-c1nc2c([nH]1)CN(C1Cc3cccc(Cl)c3C1)CC2 (racemic) [Example 12, 5-(4-chloro-2,3-dihydro-1H-inden-2-yl)-2-(2-chlorophenyl)-4,5,6,7-tetrahydro-3H-imidazo[4,5-c]pyridine] | 100 to 490 | 100 to 490 |
| Fc1ccccc1-c1nc2c([nH]1)CN(C1CCc3ccc(Cl)cc3C1)CC2 (centres unmarked) [Example 6, 5-(7-chloro-1,2,3,4-tetrahydronaphthalen-2-yl)-2-(2-fluorophenyl)-4,5,6,7-tetrahydro-3H-imidazo[4,5-c]pyridine] | 1000 to 50000 | 1000 to 50000 |
| Clc1ccccc1-c1nc2c([nH]1)CN(C1Cc3ccccc31)CC2 (centres unmarked) [Example 43, 5-(bicyclo[4.2.0]octa-1(6),2,4-trien-7-yl)-2-(2-chlorophenyl)-4,5,6,7-tetrahydro-3H-imidazo[4,5-c]pyridine] | > 30000 | 1000 to 50000 |
| Cn1c(-c2ccccc2Cl)nc2c1CN(C1CCc3cccc(Cl)c3C1)CC2 (centres unmarked) [Example 18, 5-(8-chloro-1,2,3,4-tetrahydronaphthalen-2-yl)-2-(2-chlorophenyl)-3-methyl-4,5,6,7-tetrahydro-3H-imidazo[4,5-c]pyridine] | 1000 to 50000 | 1000 to 50000 |
| CN1C2=C(CCN([C@@H]3CCc4cccc(Cl)c4C3)C2)NC1c1ccccc1Cl (stereo partly drawn) [Example 18-R, 5-((R)-8-chloro-1,2,3,4-tetrahydronaphthalen-2-yl)-2-(2-chlorophenyl)-3-methyl-2,3,4,5,6,7-hexahydro-1H-imidazo[4,5-c]pyridine] | < 100 | < 100 |
| Clc1ccccc1-c1nc2c([nH]1)CN(C1CCc3cc(Br)ccc3C1)CC2 (centres unmarked) [Example 109, 5-(6-bromo-1,2,3,4-tetrahydronaphthalen-2-yl)-2-(2-chlorophenyl)-4,5,6,7-tetrahydro-3H-imidazo[4,5-c]pyridine] | 1000 to 50000 | 1000 to 50000 |
| Cn1c(-c2ccccc2Cl)nc2c1CC(N1CCc3cccc(Cl)c3C1)CC2 (centres unmarked) [Example 187, 8-chloro-2-(2-(2-chlorophenyl)-1-methyl-4,5,6,7-tetrahydro-1H-benzo[d]imidazol-6-yl)-1,2,3,4-tetrahydroisoquinoline] | < 100 | < 100 |

Source: US12209092B2, “Inhibitors of GLI1 as therapeutic agents” (NEW YORK UNIVERSITY, priority 2018, dated 2025)
